Measured values: ChEMBL document CHEMBL4725229, “Positional Analogue Scanning: An Effective Strategy for Multiparameter Optimization in Drug Design” (J Med Chem, 2020)
Calls of active or inactive are those of the source. The rule behind the calls is not given here.

Columns and labels:
[1] = target: Sphingosine 1-phosphate receptor 1 (Homo sapiens) (UniProt P21453); assay: Agonist activity at S1P1 (unknown origin) relative to control; conditions: filed as agonist
[2] = target: T1, Sphingosine 1-phosphate receptor 3 (Homo sapiens, UniProt Q99500); assay: Agonist activity at S1P3 (unknown origin) relative to control
[3] = Apparent permeability across apical to basolateral side in pig LLC-PK1 cells; type: ADME, cell-based, Sus scrofa
[4] = target: T1, Sphingosine 1-phosphate receptor 3; assay: Agonist activity at S1P3 (unknown origin)

Chain of Sphingosine 1-phosphate receptor 1 (Homo sapiens) (P21453 whole entry): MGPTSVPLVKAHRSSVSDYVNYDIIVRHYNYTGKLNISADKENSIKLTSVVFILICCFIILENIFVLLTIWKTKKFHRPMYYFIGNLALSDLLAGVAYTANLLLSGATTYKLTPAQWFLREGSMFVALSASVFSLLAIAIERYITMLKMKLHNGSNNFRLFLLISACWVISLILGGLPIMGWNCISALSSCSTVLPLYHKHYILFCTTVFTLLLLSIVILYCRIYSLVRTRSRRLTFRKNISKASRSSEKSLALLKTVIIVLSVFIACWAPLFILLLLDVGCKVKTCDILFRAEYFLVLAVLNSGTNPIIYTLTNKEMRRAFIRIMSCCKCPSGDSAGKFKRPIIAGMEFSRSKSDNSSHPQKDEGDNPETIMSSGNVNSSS
T1 sequence (Q99500 whole entry): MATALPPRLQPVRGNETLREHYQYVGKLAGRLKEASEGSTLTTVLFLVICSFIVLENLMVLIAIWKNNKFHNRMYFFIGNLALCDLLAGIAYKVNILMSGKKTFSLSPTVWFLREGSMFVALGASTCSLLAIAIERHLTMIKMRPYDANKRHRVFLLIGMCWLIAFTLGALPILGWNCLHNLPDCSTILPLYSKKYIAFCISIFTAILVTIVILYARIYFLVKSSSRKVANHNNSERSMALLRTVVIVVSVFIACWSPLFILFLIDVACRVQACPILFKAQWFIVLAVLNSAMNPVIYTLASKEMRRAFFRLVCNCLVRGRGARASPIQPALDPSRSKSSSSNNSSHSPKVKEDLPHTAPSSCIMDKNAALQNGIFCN

Row | SMILES | Emax [1] [%] | Emax [2] | Papp A→B [3] [×10⁻⁶ cm/s] | EC50 [4] | Emax ([2]; filed as agonist) [%]
1 | Cn1cc(C(=O)Nc2ccc(-c3ccccc3)c(C(F)(F)F)c2)c(=O)c2cccnc21 | 100 | inactive | 2.2 | Not Active | 
2 | Cn1nc(C(=O)Nc2ccc(-c3ccccc3)c(C(F)(F)F)c2)c(=O)c2ccccc21 | 130 | inactive | 2.3 | Not Active | 
3 | Cn1cc(C(=O)Nc2ccc(-c3ccccc3)c(C(F)(F)F)c2)c(=O)c2ccncc21 | 120 | inactive | 3.4 | Not Active | 
4 | Cn1cc(C(=O)Nc2ccc(-c3ccccc3)c(C(F)(F)F)n2)c(=O)c2cnccc21 | 120 | inactive | 6.7 | Not Active | 
5 | Cn1cc(C(=O)Nc2ccc(-c3ccncc3)c(C(F)(F)F)c2)c(=O)c2ccccc21 | 110 | inactive | 15 | Not Active | 
6 | Cn1cc(C(=O)Nc2ccc(-c3ccccc3)c(C(F)(F)F)c2)c(=O)c2ncccc21 | 86 | inactive | 16 | Not Active | 

The remaining lines, values ahead:

Row | Emax [1] [%] | Emax [2] | Papp A→B [3] [×10⁻⁶ cm/s] | EC50 [4] | Emax ([2]; filed as agonist) [%] | SMILES
7 | 59 | inactive | < 1 | Not Active |  | Cn1cc(C(=O)Nc2cc(C(F)(F)F)c(-c3ccccc3)cn2)c(=O)c2ccccc21
8 | 170 | inactive | 11 | Not Active |  | Cn1cc(C(=O)Nc2cnc(-c3ccccc3)c(C(F)(F)F)c2)c(=O)c2ccccc21
9 | 100 | inactive | 5.7 | Not Active |  | Cn1cc(C(=O)Nc2ccc(-c3ccccc3)c(C(F)(F)F)c2)c(=O)c2cnccc21
10 | 110 | inactive | 11 | Not Active |  | Cn1cc(C(=O)Nc2ccc(-c3ccccn3)c(C(F)(F)F)c2)c(=O)c2ccccc21
11 | 110 | inactive | 18 | Not Active |  | Cn1cc(C(=O)Nc2ccc(-c3cccnc3)c(C(F)(F)F)c2)c(=O)c2ccccc21
12 | 120 | inactive | < 1 | Not Active |  | Cn1cc(C(=O)Nc2ccc(-c3ccccc3)c(C(F)(F)F)n2)c(=O)c2ccccc21
13 | 110 |  | 1.2 |  | 92 | Cn1cc(C(=O)Nc2ccc(-c3ccccc3)c(C(F)(F)F)c2)c(=O)c2ccccc21
